# Measurements published in patent US20250270170A1, “2,3-DIMETHOXY-5-METHYL-1,4-BENZOQUINONE ALKYL ALCOHOL DERIVATIVE AND USE THEREOF” (BEIJING ANJIANXI BIO-MEDICAL TECHNOLOGY CO., LTD., priority 2021, published 2025).
# Marks after values point to notes of the source that are not given here.
# What was measured:
# [1] = test system: human non-small cell lung cancer A549 transplanted tumor; test: Example 9: tumor growth in A549 transplanted tumor model; format: in vivo, nude mice
# From the text: Human non-small cell lung cancer cells A549 were obtained from the Cell Bank of the Type Culture Collection Committee of Chinese Academy of Sciences (CAS, cryopreserved in liquid nitrogen in this assay). […] On D1 of the assay, the A549 cells in the logarithmic growth phase were collected, counted and resuspended in PBS, and the cell concentration was adjusted to 8×10^7 cells/mL. The cells were pipetted with a pipette to disperse them evenly, and the cells were put into a 50-mL centrifuge tube, which was placed in an ice box. A 1-mL syringe was used to draw the cell suspension, which was injected subcutaneously into the axilla of the front right limb of a nude mouse. Each animal was inoculated with 100 μL (8×10^6 cells/mouse) to establish an A549 transplanted tumor model in nude mice. After the inoculation, the animal status and tumor growth were regularly observed. On D18, the tumor diameter was measured using an electronic vernier caliper. The data were input into an Excel spreadsheet to calculate the tumor volume. Tumor-bearing mice in good health and with similar tumor volumes (101 to 156 mm^3) were selected and divided into groups using randomized block method. After the start of the assay, the tumor diameter was measured regularly, the tumor volume was calculated, and the animal body weight was also weighed and recorded. On the last day of the assay, CO2 inhalation anesthesia was used on the animals 1 hour after the administration (R01). Blood was collected through the heart, and a part of the whole blood was added with EDTA-K2 for anticoagulation. The plasma was separated by centrifugation at 4° C. and 1500 g for 10 minutes. The plasma was collected, and stored in a −40° C. to −20° C. freezer (if necessary, it can be used for the determination of the plasma drug concentration). No anticoagulant was added to the other part of the whole blood, and the serum was separated by centrifugation after the blood coagulated, which was used for the detection of blood urea nitrogen. After the blood collection, the tumor tissue was collected, weighed and photographed. Then, the tumor was divided into two parts, quickly cryopreserved by liquid nitrogen, and transferred to a −90° C. to −60° C. freezer for storage. […] [table]
# [2] = Example 11: body weight in cisplatin-induced acute kidney damage model; format: in vivo, C57BL/6J mice; conditions: mouse, in vivo
# Experimental: 42 male C57BL/6J mice (age: 6 to 8 weeks, body weight 18-20 g, certificate number: 11400700238365) were purchased from Si Pei Fu (Beijing) Biotechnology Co., Ltd., and raised in an SPF-grade animal room of the Institute of Materia Medica, Chinese Academy of Medical Sciences, at a temperature of 20 to 25° C., a relative humidity of 40% to 70%, and a cycle of 12 hours of light and 12 hours of dark. The animals had free access to water and food. After 3 days of normal feeding, mice with good physical conditions after the veterinary examination were selected for this assay. Before grouping, a marker was used to mark on the base of the animals' tail. After grouping, each animal was marked with an ear cutout (7 mice in each group).
# Assay animals: 42 7-week-old male C57 mice were used for animal testing after an adaptive feeding.
# Group 1: blank control group;
# The preparation of the R01 formulation administration test solution was the same as that in Example 5: an appropriate amount of the R01 formulation was weighed according to the three dosages set in the assay, respectively, and an appropriate volume of 0.5% CMC-Na aqueous solution was added. The mixture was vortexed and sonicated until mixed evenly, to give the administration test solutions with concentrations of […], respectively, which were ready for use.
# Animal testing period: 7 days (excluding adaptive feeding), hereinafter referred to as: D1-D7.
# 1. The first group was a solvent control group: N=7, all mice were males (the same below); • a) 0.5% solution of sodium carboxymethyl cellulose was gavagely administered from D1 to D6 (twice a day for each animal, with an interval of 8 hours between the morning and the afternoon). • b) Physiological saline was intraperitoneally injected in one-time on D4. • c) On D7, blood was collected from the orbit for euthanasia (300 ul of serum was extracted), the left kidney was fixed in formaldehyde, and the right kidney was preserved in liquid nitrogen (WB study may be carried out).
# 3) Each animal was weighed before euthanasia, and the weight was recorded. Two kidneys were weighed as soon as possible after euthanasia, and the weight was recorded. Then, the two kidneys were quickly fixed or cryopreserved, and the kidney coefficient of the mouse was calculated (kidney weight/mouse weight).
# The body weight of the animals when being grouped for administration in each group was recorded. The body weight and the kidney weight at the end of the assay were also recorded, and the kidney coefficient was calculated. The creatinine and urea nitrogen values in the blood samples sent for testing were recorded. The kidneys were stained with HE and PAS, and the slides were scanned. A report was issued after the pathological analysis.
# The assay data were calculated and processed statistically using Microsoft Office Excel 2007 software. Unless otherwise specified, the data were expressed as mean±standard error (Mean±SE), and t-test was used for comparison between two groups.
# [3] = D21, DDP 5/7/7/7 mg/kg i.p. QW×4
# [4] = D25, DDP 5/7/7/7 mg/kg i.p. QW×4
# [5] = D28, DDP 5/7/7/7 mg/kg i.p. QW×4
# [6] = D32, DDP 5/7/7/7 mg/kg i.p. QW×4
# [7] = D35, DDP 5/7/7/7 mg/kg i.p. QW×4
# [8] = D39, DDP 5/7/7/7 mg/kg i.p. QW×4
# [9] = D42, DDP 5/7/7/7 mg/kg i.p. QW×4
# [10] = D46, DDP 5/7/7/7 mg/kg i.p. QW×4
smiles,measurement,setting,value
"N.N.[Cl][Pt][Cl] [DDP, cisplatin]",Mean tumor volume,"[1]; D18, DDP 4 mg/kg i.p. QW×4",127 ± 6 mm^3
same,Mean tumor volume,"[1]; D18, DDP 5/7/7/7 mg/kg i.p. QW×4",130 ± 5 mm^3
same,Mean tumor volume,"[1]; D21, DDP 4 mg/kg i.p. QW×4",210 ± 10 mm^3
same,tumor growth inhibition rate (TGI),"[1]; D21, DDP 4 mg/kg i.p. QW×4",(−1.0%)
same,Mean tumor volume,[1]; [3],208 ± 11 mm^3
same,tumor growth inhibition rate (TGI),[1]; [3],(4.7%)
same,Mean tumor volume,"[1]; D25, DDP 4 mg/kg i.p. QW×4",297 ± 20** mm^3
same,tumor growth inhibition rate (TGI),"[1]; D25, DDP 4 mg/kg i.p. QW×4",(37%)
same,Mean tumor volume,[1]; [4],308 ± 23** mm^3
same,tumor growth inhibition rate (TGI),[1]; [4],(34%)
same,Mean tumor volume,"[1]; D28, DDP 4 mg/kg i.p. QW×4",418 ± 28** mm^3
same,tumor growth inhibition rate (TGI),"[1]; D28, DDP 4 mg/kg i.p. QW×4",(29%)
same,Mean tumor volume,[1]; [5],428 ± 30** mm^3
same,tumor growth inhibition rate (TGI),[1]; [5],(27%)
same,Mean tumor volume,"[1]; D32, DDP 4 mg/kg i.p. QW×4",561 ± 35** mm^3
same,tumor growth inhibition rate (TGI),"[1]; D32, DDP 4 mg/kg i.p. QW×4",(27%)
same,Mean tumor volume,[1]; [6],562 ± 41** mm^3
same,tumor growth inhibition rate (TGI),[1]; [6],(28%)
same,Mean tumor volume,"[1]; D35, DDP 4 mg/kg i.p. QW×4",670 ± 56** mm^3
same,tumor growth inhibition rate (TGI),"[1]; D35, DDP 4 mg/kg i.p. QW×4",(26%)
same,Mean tumor volume,[1]; [7],696 ± 52* mm^3
same,tumor growth inhibition rate (TGI),[1]; [7],(22%)
same,Mean tumor volume,"[1]; D39, DDP 4 mg/kg i.p. QW×4",914 ± 89** mm^3
same,tumor growth inhibition rate (TGI),"[1]; D39, DDP 4 mg/kg i.p. QW×4",(30%)
same,Mean tumor volume,[1]; [8],892 ± 86** mm^3
same,tumor growth inhibition rate (TGI),[1]; [8],(33%)
same,Mean tumor volume,"[1]; D42, DDP 4 mg/kg i.p. QW×4",1110 ± 119 mm^3
same,tumor growth inhibition rate (TGI),"[1]; D42, DDP 4 mg/kg i.p. QW×4",(23%)
same,Mean tumor volume,[1]; [9],1099 ± 85* mm^3
same,tumor growth inhibition rate (TGI),[1]; [9],(24%)
same,Mean tumor volume,"[1]; D46, DDP 4 mg/kg i.p. QW×4",1333 ± 176 mm^3
same,tumor growth inhibition rate (TGI),"[1]; D46, DDP 4 mg/kg i.p. QW×4",(20%)
same,Mean tumor volume,[1]; [10],1236 ± 32* mm^3
same,tumor growth inhibition rate (TGI),[1]; [10],(27%)
same,effect on growth of the A549 transplanted tumor (summary),"[1]; DDP 4 or 5/7/7/7 mg/kg QW, R01 formulation 18 or 36 mg/kg BID, combinations 18+5/7/7/7 and 36+4",no significant effect
COC1=C(OC)C(=O)C(CCCCCCCCCCOC(=O)Cc2c(C)n(C(=O)c3ccc(Cl)cc3)c3ccc(OC)cc23)=C(C)C1=O [compound of formula (I)],"Body weight after the assay, After x (mean)",[2]; 6 mg/kg,16.2 g
same,"Body weight, Before x- after x",[2]; 6 mg/kg,4.2 g
same,"Body weight after the assay, After x (mean)",[2]; 18 mg/kg,16.2 g
same,"Body weight, Before x- after x",[2]; 18 mg/kg,4.3 g
same,"Body weight after the assay, After x (mean)",[2]; 36 mg/kg,16.1 g
same,"Body weight, Before x- after x",[2]; 36 mg/kg,4.4 g
